Laboratory results taken from US9040091B2 (priority 2012, dated 2015).

What was measured:
[1] = Solubility of DTPA in neutral pH buffer, with and without zinc acetate; format: physicochemical
Procedure: As used herein, the terms “poorly absorbed drug,” “drug having low solubility,” and the like refer to a drug (in its neutral (i.e., uncharged) state) having a water solubility in neutral pH buffer of less than about 20 mg/ml. […] Thus, as used herein, DTPA (including DTPA and its salts, hydrates, solvates, complexes, etc.) is a poorly absorbed drug. […] In some embodiments, the present disclosure provides a pharmaceutical composition comprising a composition with improved aqueous solubility comprising a DTPA and zinc acetate composition of the present disclosure.

[2] = Americium-241 decorporation in dogs (urine, feces, tissue Am-241); format: in vivo, beagle dogs; details: daily dosing days 1-14, Zn-DTPA IV 15 mg/kg, NanoDTPA 1, 2 or 6 capsules/day or 2 capsules twice/day
Excerpt: The objective of this study was to evaluate the dose-related efficacy of daily doses of NanoDTPA capsules in male and female beagle dogs intravenously (IV) administered a soluble citrate complex of americium-241 (Am-241). Twenty-four (24) male and female beagle dogs underwent a 14-day quarantine period for acclimation. Once released from quarantine, animals were weighed and randomized into study animals or spares. The average body weight of study animals was 8.6±0.9 kg (males 9.0±1.0 kg; females 8.2±0.7 kg). After randomization, animals were acclimated to metabolism cages for 24 hours prior to radionuclide administration. Animals received a single IV administration of 241Am(III)-citrate on Day 0. One day after radionuclide administration, one of four different doses of NanoDTPA capsules [1, 2, or 6-capsules/day or 2 capsules twice/day], IV Zn-DTPA [15 mg/kg] as a positive control, or IV saline as a placebo were administered. NanoDTPA capsules, IV Zn-DTPA, or IV saline was administered on study days 1-14. Urine and feces were collected daily. Animals were euthanized on day 21 and tissues collected. Urine, fecal, and tissue samples were analyzed for Am-241 content.

[3] = Single dose pharmacokinetic testing, DTPA in blood of male beagle dogs; format: in vivo; details: 72 hours post-dose
Procedure: The objective of this study was to evaluate the concentration of DTPA in blood following a single administration with either Zn-DTPA injectable solution or NanoDTPA capsules using male beagle dogs. Single dose pharmacokinetic (PK) testing groups of Zn-DTPA solution vs. NanoDTPA capsules included nine study groups used for the PK testing. Zn-DTPA solution was delivered intravenously (IV) and by mouth (per os, PO) and NanoDTPA capsules were administered PO. […] Three formulations of NanoDTPA capsules were tested to examine different formulations of NanoDTPA powder and different capsule sizes. The dose for each NanoDTPA capsule formulation was either two or six capsules and the calculated DTPA doses confirmed based on the amount of DTPA in the capsules and body weight.

[4] = Americium-241 decorporation in rats (tissue levels and excretion); format: in vivo; details: NanoDTPA capsules PO 60 mg/kg DTPA; for liver total Am-241 activity: rat liver, Zn-DTPA IV 15 mg/kg DTPA, per 200 ul homogenized tissue
Procedure: The decorporation and excretion properties in rodents of oral NanoDTPA capsules at 60 mg/kg DTPA according to the present disclosure was compared to IV Zn-DTPA solution at 15 mg/kg DTPA, which is the currently licensed product available to the public. The studies were designed to provide data that systemic Am-241 at a single low dose followed by oral NanoDTPA capsules can provide a sufficient radiation dose reduction as an efficacy endpoint. All DTPA dosing was initiated 24 hours post-exposure to isotope (Am-241) in this set of studies to simulate a realistic emergency response time following exposure. Two sets of measurements were made: (1) internal tissue levels at 2, 4, and 7 days vs. (2) daily excreted concentrations in urine and feces.
There was a general trend of tissue reduction in all groups over the 3, 5, and 8 day observation period. All data are expressed as total Am-241 activity in nCi per 200 ul blood, homogenized tissue, or output (urine and feces).

Structure (SMILES) | increase of the solubility of DTPA ([1]; about 10 mg/ml zinc acetate) | solubility of DTPA with zinc acetate ([1]; about 10 mg/ml zinc acetate) | increase of the solubility of DTPA ([1]; about 20 mg/ml zinc acetate) | solubility of DTPA with zinc acetate ([1]; about 20 mg/ml zinc acetate) | solubility in neutral pH buffer ([1]; neutral pH buffer, no additive) [mg/ml] | Am-241 activity excreted in the urine compared to the saline placebo [2] | percent bioavailability ([3]; PO 6 mg DTPA/kg) [%] | percent bioavailability ([3]; PO 60 mg DTPA/kg) [%] | liver total Am-241 activity ([4]; after 2 doses, dosing from 24 h post-exposure) | liver total Am-241 activity ([4]; after 4 doses) | liver total Am-241 activity ([4]; after 7 doses) | tissue Am-241 concentrations compared to control animals receiving no DTPA treatment ([4]; rats, Zn-DTPA IV 15 mg/kg)
O=C(O)CN(CCN(CC(=O)O)CC(=O)O)CCN(CC(=O)O)CC(=O)O [DTPA, diethylenetriaminepentaacetate] | about 35% | about 23.3 mg/ml | about 83% | about 31.5 mg/ml | < 17.2 |  |  |  |  |  |  | 
O=C([O-])CN(CCN(CC(=O)[O-])CC(=O)[O-])CCN(CC(=O)[O-])CC(=O)[O-].[Na+].[Na+].[Na+].[Zn+2] [Zn-DTPA] |  |  |  |  |  | approximately 9.4 times | 12.26 | 12.67 | 116.37+/−26.90 nCi | 81.70+/−11.53 nCi | 55.42+/−19.68 nCi | significantly lower
